ChEMBL document CHEMBL4145544, “Discovery and optimization of 1-(1H-indol-1-yl)ethanone derivatives as CBP/EP300 bromodomain inhibitors for the treatment of castration-resistant prostate cancer” (Eur J Med Chem, 2018)
The source made the active and inactive calls. No cut-off for these calls is given here.

Tests used:
LNCaP [1] = assay: Antiproliferative activity against human LNCAP cells after 72 hrs by Cell-Titer Glo assay; assay type: functional, cell-based; conditions: Homo sapiens, LNCaP, 72 h; read-out: IC50
PC-3 = assay: Antiproliferative activity against human PC3 cells after 96 hrs by Cell-Titer Glo assay; assay type: functional, cell-based; conditions: PC-3, 96 h
MCF7 = assay: Antiproliferative activity against human MCF7 cells after 96 hrs by Cell-Titer Glo assay; assay type: functional, cell-based; conditions: MCF7, 96 h
Hs-578T = assay: Antiproliferative activity against human Hs 578T cells after 72 hrs by Cell-Titer Glo assay; assay type: functional, cell-based
MDA-MB-231 = assay: Antiproliferative activity against human MDA-MB-231 cells after 96 hrs by Cell-Titer Glo assay; assay type: functional, cell-based; conditions: MDA-MB-231, 96 h
HFL1 = assay: Antiproliferative activity against HFL1 cells after 72 hrs by Cell-Titer Glo assay; assay type: cell-based; conditions: Homo sapiens, HFL1, 72 h
L02 = assay: Antiproliferative activity against human HL7702 cells after 96 hrs by Cell-Titer Glo assay; assay type: cell-based; conditions: L02, 96 h
LNCaP [2] = assay: Potency index, ratio of enzalutamide IC50 to compound IC50 for antiproliferative activity against human LNCAP cells; assay type: functional
CWR22R [3] = assay: Potency index, ratio of enzalutamide IC50 to compound IC50 for antiproliferative activity against human 22Rv1 cells; assay type: functional
CWR22R [4] = assay: Anticlonogenic activity against human 22Rv1 cells after 14 days by crystal violet staining based assay; assay type: functional, cell-based
LNCaP C4-2B [5] = assay: Anticlonogenic activity against human C4-2B cells after 14 days by crystal violet staining based assay; assay type: functional, cell-based
CWR22R [6] = assay: Anticlonogenic activity against human 22Rv1 cells at 4 uM after 14 days by crystal violet staining based assay relative to control; assay type: functional
LNCaP C4-2B [7] = assay: Anticlonogenic activity against human C4-2B cells at 4 uM after 14 days by crystal violet staining based assay relative to control; assay type: functional
[8] = molecular target: T1, CREB-binding protein/Histone acetyltransferase p300 (Homo sapiens) (UniProt Q09472+Q92793); assay: Inhibition of EP300/CBP in human LNCAP cells assessed as downregulation of full length AR mRNA expression at 1 to 5 uM after 48 hrs by qRT-PCR method; assay type: cell-based
T1 sequence (Q09472 whole entry, looked up): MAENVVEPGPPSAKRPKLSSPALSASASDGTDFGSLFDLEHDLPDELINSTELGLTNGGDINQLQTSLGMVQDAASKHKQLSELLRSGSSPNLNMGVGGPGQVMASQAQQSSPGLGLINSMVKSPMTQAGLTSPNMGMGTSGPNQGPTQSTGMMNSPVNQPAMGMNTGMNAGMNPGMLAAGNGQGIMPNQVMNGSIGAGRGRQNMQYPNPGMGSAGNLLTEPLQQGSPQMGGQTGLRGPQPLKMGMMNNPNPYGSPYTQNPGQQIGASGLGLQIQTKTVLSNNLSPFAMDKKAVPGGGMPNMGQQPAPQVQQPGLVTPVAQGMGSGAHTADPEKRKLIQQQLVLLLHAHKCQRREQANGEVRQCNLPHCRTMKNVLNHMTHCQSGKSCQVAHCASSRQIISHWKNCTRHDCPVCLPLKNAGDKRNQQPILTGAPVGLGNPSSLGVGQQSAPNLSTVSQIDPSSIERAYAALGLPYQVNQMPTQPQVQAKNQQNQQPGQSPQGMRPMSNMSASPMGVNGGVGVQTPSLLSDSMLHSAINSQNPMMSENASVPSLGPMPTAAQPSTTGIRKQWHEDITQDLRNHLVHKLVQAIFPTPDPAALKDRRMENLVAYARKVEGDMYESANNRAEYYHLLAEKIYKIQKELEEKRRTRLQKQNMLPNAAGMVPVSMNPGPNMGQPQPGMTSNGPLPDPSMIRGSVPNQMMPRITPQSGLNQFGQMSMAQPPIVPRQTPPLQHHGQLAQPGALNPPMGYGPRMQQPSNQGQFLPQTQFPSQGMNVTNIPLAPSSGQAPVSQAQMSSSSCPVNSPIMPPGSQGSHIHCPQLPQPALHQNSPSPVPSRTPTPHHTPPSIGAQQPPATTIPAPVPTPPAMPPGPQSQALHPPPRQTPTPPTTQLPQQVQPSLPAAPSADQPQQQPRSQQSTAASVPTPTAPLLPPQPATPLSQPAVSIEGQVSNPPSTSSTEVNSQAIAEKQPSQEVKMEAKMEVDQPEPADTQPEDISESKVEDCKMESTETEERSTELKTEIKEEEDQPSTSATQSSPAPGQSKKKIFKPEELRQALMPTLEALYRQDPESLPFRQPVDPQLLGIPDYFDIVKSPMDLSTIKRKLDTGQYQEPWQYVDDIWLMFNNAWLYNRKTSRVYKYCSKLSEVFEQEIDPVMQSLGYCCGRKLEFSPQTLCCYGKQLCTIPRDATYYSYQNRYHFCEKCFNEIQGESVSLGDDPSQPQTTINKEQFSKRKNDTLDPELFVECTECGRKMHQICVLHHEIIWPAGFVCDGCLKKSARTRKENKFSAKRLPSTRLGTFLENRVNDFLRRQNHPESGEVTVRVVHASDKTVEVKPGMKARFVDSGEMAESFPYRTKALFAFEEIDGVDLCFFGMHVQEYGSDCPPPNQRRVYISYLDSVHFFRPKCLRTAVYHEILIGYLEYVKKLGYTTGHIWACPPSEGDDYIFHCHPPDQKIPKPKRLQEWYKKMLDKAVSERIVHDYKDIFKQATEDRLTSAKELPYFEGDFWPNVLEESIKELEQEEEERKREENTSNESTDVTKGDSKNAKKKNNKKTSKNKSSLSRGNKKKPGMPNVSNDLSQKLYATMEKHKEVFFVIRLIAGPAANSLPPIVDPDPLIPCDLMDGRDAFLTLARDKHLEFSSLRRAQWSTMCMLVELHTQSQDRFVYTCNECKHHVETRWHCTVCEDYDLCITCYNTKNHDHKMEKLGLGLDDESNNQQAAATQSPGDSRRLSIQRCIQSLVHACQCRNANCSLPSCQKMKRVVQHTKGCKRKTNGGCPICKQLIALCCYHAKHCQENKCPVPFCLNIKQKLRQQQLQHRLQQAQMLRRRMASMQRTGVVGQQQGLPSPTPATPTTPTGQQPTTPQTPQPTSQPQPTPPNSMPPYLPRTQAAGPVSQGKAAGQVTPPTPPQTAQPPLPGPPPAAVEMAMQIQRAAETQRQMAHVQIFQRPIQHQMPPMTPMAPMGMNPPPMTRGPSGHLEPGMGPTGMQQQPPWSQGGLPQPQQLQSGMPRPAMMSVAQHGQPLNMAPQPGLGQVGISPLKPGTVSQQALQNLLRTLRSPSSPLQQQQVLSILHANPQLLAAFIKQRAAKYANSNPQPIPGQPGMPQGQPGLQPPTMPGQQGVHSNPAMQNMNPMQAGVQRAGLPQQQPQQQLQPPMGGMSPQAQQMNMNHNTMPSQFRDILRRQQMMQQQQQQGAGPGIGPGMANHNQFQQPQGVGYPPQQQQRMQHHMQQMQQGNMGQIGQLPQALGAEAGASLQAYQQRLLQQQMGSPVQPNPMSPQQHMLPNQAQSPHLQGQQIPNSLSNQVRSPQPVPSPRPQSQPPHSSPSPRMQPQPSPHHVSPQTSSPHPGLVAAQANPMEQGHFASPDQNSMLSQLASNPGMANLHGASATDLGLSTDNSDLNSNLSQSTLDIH
T1 sequence (Q92793 whole entry, looked up): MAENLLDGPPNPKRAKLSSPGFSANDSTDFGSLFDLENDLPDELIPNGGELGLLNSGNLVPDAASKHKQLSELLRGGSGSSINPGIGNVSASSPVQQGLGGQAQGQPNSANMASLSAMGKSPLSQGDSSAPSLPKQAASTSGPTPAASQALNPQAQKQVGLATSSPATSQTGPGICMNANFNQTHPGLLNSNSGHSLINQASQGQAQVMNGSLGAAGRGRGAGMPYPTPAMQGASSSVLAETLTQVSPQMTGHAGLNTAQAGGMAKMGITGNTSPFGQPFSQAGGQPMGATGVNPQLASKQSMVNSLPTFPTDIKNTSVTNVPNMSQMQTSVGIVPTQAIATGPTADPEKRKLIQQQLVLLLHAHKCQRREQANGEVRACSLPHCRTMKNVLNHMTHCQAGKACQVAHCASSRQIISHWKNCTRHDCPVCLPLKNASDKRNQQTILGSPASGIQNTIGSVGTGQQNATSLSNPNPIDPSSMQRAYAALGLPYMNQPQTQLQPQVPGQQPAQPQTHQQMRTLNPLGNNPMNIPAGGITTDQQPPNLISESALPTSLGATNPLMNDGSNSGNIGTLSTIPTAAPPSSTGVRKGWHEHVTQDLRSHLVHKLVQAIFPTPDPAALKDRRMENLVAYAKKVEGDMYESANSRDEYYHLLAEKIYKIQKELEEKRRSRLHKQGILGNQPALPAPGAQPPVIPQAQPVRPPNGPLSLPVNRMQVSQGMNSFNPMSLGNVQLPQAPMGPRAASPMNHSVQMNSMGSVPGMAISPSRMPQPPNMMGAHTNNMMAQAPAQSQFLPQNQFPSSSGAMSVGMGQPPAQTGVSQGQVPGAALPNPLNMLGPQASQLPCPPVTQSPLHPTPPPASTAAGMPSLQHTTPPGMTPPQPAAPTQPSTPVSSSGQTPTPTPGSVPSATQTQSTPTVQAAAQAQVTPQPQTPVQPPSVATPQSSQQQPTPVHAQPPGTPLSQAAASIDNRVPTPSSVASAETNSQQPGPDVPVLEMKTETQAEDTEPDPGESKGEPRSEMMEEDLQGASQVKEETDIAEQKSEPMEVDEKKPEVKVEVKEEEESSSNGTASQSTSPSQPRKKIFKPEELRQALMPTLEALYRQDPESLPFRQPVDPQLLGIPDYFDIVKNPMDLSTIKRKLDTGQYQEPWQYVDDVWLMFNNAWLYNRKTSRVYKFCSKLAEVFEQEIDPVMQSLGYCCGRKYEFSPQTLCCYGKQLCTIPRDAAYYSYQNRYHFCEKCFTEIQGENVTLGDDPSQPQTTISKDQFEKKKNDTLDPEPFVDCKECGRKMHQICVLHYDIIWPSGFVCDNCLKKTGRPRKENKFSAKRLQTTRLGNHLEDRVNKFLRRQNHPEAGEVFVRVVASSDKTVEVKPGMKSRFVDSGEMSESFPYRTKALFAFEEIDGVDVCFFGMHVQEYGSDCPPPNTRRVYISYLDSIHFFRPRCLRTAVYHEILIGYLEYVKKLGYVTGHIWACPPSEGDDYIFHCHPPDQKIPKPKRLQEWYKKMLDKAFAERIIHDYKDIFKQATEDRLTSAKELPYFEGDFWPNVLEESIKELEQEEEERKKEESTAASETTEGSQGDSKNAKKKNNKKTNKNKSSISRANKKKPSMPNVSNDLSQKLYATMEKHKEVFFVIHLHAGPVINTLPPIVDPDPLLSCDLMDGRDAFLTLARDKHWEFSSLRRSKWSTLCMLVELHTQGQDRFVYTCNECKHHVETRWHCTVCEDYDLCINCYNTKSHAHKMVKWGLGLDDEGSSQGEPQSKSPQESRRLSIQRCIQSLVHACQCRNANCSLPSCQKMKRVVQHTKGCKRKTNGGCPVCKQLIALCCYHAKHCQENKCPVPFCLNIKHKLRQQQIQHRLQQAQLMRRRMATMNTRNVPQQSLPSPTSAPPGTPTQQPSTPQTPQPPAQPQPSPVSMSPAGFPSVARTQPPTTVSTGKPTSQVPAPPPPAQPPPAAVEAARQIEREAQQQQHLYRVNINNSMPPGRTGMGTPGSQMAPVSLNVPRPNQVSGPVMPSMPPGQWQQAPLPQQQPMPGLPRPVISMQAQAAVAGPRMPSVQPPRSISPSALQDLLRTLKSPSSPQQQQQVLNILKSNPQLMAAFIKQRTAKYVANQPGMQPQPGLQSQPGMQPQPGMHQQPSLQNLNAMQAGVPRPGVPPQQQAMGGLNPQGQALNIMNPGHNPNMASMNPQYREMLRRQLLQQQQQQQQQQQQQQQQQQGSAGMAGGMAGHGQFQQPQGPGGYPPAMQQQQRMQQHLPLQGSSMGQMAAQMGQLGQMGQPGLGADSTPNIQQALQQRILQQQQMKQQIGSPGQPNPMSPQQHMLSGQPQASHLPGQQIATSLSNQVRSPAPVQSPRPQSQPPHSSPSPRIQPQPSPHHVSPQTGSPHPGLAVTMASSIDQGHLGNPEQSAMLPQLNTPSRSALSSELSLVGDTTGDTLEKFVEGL

[9] = molecular target: T1, CREB-binding protein/Histone acetyltransferase p300 (Homo sapiens); assay: Inhibition of EP300/CBP in human LNCAP cells assessed as downregulation of AR-regulated KLK2 mRNA expression at 1 to 5 uM after 48 hrs by qRT-PCR method; assay type: cell-based
[10] = molecular target: T1, CREB-binding protein/Histone acetyltransferase p300 (Homo sapiens); assay: Inhibition of EP300/CBP in human LNCAP cells assessed as downregulation of AR-regulated PSA mRNA expression at 1 to 5 uM after 48 hrs by qRT-PCR method; assay type: cell-based
[11] = molecular target: T1, CREB-binding protein/Histone acetyltransferase p300 (Homo sapiens); assay: Inhibition of EP300/CBP in human LNCAP cells assessed as downregulation of AR-regulated TMPRSS2 mRNA expression at 1 to 5 uM after 48 hrs by qRT-PCR method; assay type: cell-based
[12] = molecular target: T1, CREB-binding protein/Histone acetyltransferase p300 (Homo sapiens); assay: Inhibition of EP300/CBP in human LNCAP cells assessed as downregulation of Myc mRNA expression at 1 to 5 uM after 48 hrs by qRT-PCR method; assay type: cell-based
[13] = molecular target: T1, CREB-binding protein/Histone acetyltransferase p300 (Homo sapiens); assay: Inhibition of EP300/CBP in human LNCAP cells transfected with PSA-Luc reporter plasmid after 24 hrs by luciferase reporter gene assay; assay type: cell-based
CWR22R [14] = assay: cells; conditions: Homo sapiens, 22Rv1, 72 h
Description: Antiproliferative activity against human 22Rv1 cells after 72 hrs by Cell-Titer Glo assay

Work on `COc1ccc2c(c1)c(C(=O)Nc1cc(C(=O)OC(C)(C)C)cc(-c3cnn(C)c3)c1F)cn2C(C)=O` yielded an IC50 (LNCaP [1]) of 2.01 µM, an IC50 (PC-3) of 25.8 µM and an IC50 (MCF7) of 7.46 µM. The IC50 (Hs-578T) was 15.1 µM, the IC50 (MDA-MB-231) was 36 µM and the IC50 (HFL1) was > 100 µM. For the same compound, the IC50 (L02) was 40 µM, the “Ratio IC50” value (LNCaP [2]) was 17 and the “Ratio IC50” value (CWR22R [3]) was 17. For the same compound, the Activity (CWR22R [4]) was “Dose-dependent effect”, the Activity (LNCaP C4-2B [5]) was “Dose-dependent effect” and the Activity (CWR22R [6]) was <10%. For the same compound, the Activity (LNCaP C4-2B [7]) was <10%, the inhibition [8] was “Active” and the inhibition [9] was “Active”. The inhibition [10] was “Active”, the inhibition [11] was “Active” and the inhibition [12] was “Active”. For the same compound, the inhibition [13] was “Dose-dependent effect” and the IC50 (CWR22R [14]) was 2.13 µM.
